Results from US11197906B2, “Methods of lowering blink reflex for the treatment of dry eye disease” (Tufts Medical Center, priority 2016, dated 2021).
Non-standard residues stand in square brackets, D forms with d. Residues, ends and D or L forms follow the SMILES beside them. Primed or numbered codes have the meaning given here. *: point of attachment. Palmitoyl = CCCCCCCCCCCCCCCC(=O)*; Tic = O=C(O)[C@@H]1Cc2ccccc2CN1; PEG8′ = not defined here

What was measured:
CMKLR1 [1] = target: T1, CMKLR1 (Homo sapiens, UniProt Q99788); assay: β-Arrestin recruitment, Link-Light CMKLR1 stable cell line; assay type: cell-based; conditions: 1 hr treatment; for Emax: read-out: Max Efficacy (% 10 μM s-Stable chem9)
T1 construct: expressed in transfected cells; host or cells: HEK293
T1 sequence (Q99788 1-373): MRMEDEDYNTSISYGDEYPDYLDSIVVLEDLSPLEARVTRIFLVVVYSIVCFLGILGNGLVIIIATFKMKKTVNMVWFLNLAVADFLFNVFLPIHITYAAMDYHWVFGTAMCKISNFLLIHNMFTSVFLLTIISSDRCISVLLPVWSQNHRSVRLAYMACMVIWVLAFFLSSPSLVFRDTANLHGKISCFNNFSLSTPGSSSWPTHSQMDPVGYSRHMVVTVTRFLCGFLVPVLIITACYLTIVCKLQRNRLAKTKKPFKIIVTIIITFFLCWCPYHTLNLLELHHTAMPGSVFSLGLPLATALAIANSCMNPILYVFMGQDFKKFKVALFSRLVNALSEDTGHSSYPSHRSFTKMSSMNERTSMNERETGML

CMKLR1 [2] = target: T1, CMKLR1; assay: Luciferase reporter assay of CMKLR1 canonical Gαi signal transduction in HEK293 cells transiently expressing recombinant CMKLR1 (+/- wash, +/- albumin); assay type: cell-based; conditions: for EC50: no wash
[3] = test system: chronic constriction injury (CCI) mouse model; assay: Chronic constriction injury (CCI) mouse model of neuropathic pain; assay type: in vivo; conditions: for effect on neuropathic pain: CCI mouse model; for time after compound administration over which mechanical hypersensitivity is blocked / efficacy kept: intrathecal administration
Experimental: Following intrathecal administration of compound, 1-Stable Chem (C16-stable Chem9) blocked mechanical hypersensitivity for more than 24 hours after compound administration (FIG. 6A). In contrast, Resolvin E1 lost efficacy by 3 hours post injection (FIG. 6B).
One emerging treatment strategy to treat neuropathic pain is to target modulators of the neuroinflammatory process which contributes to neuropathic pain. We have previously identified a palmitoylated stable analog (“C16-Stable Chem9”) derived from a 9 amino acid fragment of chemerin. […] Extending from these observations, we hypothesized that the pharmacological properties of our peptide may be further optimized by modifying the lipid anchor. We have chemically synthesized a series of Chem 9 analogs with various lipid tails (e.g. cholesterol, oleic acid, linolenic acid). In vitro pharmacological characterization of each peptide was done using HEK293 cells transiently expressing the recombinant CMKLR1. […] Furthermore, selected lipid tails bias binding to either albumin (thus enhancing systemic delivery) or to the cellular membrane (which favors locally restricted function). The lipidated CMKLR1 ligands have promise as modulators of neuropathic pain. In addition, our findings illustrate an approach where serial addition/substitution of lipid anchors can be applied to optimize the pharmacological as well as pharmacokinetic properties of many peptide ligands.

DED mice = assay: Dry eye disease (DED) mouse model (scopolamine and desiccating stress); assay type: in vivo
Text: FIG. 11 is a graph showing that corneal fluorescein staining scores were lower in DED mice treated with oTTx-010. NEI scoring system: 0-15.
FIG. 13 is a set of flow cytometry graphs showing that percentage of activated immune cells (MHCII+) in the draining lymph node of oTTx-010 treated mice decreased compared to vehicle controls.
FIG. 14 is a set of flow cytometry graphs showing that T regulatory cells increased in the draining lymph node of oTTx-010 treated mice compared to vehicle (showing more tolerance). Flow cytometry of draining lymph nodes gated on CD45+ CD3+ and CD4+ (T cells).
In the DED mouse model, scopolamine is injected 3 times/day to decrease tear production in mice. Fenestrated cages and 4 fans around the cage working 24 hours/day are used to induce desiccating stress and dry eyes. oTTx-010 is administered to the mice to assess treatment efficacy. Vehicle is administered as control.

[4] = test system: mouse model of corneal inflammation; assay: Thermal cautery mouse model of corneal inflammation; assay type: in vivo
Experimental: FIG. 15 is a set of flow cytometry graphs showing that cell infiltration decreases after topical application of oTTx-010 compared to vehicle. Flow cytometry of pulled corneas was performed on day 3 post cautery. Mice were treated topically three times a day with 10 μL of oTTx-010 or vehicle for 3 days. 10 μL of […] oTTx-010 in 1×PBS solution=4.2 micrograms oTTx-010/dose.
Thermal cautery is a mouse model of corneal inflammation (see Arch Ophthalmol. 2003 Hamrah et al.).

In the case of CC(C)C[C@H](NC(=O)[C@H](Cc1ccccc1)NC(=O)[C@H](N)Cc1ccc(O)cc1)C(=O)N1CCC[C@H]1C(=O)N[C@H](CO)C(=O)N[C@@H](CCC(N)=O)C(=O)N[C@@H](Cc1ccccc1)C(=O)N[C@H](C)C(=O)N1Cc2ccccc2C[C@H]1C(=O)N[C@@H](CO)C(=O)O [none, reference compound] (HELM PEPTIDE1{[dY].F.L.P.[dS].Q.F.[dA].[Tic].S}$$$$V2.0), the EC50 (CMKLR1 [1]) is reported as 31.9 nM, the Emax (CMKLR1 [1]) is reported as 100% and the EC50 (CMKLR1 [2]; no BSA, read-out: EC50 (no wash0)) is reported as 35.2 nM. It also gave an EC50 (CMKLR1 [2]; with BSA, read-out: EC50 (BSA) (no wash)) of 5.1 nM.

CC/C=C\C/C=C\C/C=C\CCCCCCCC(=O)NCCOCCOCCOCCOCCOCCOCCOCCOCCC(=O)N[C@@H](CCCCN)C(=O)NCC(=O)NCC(=O)N[C@H](Cc1ccc(O)cc1)C(=O)N[C@@H](Cc1ccccc1)C(=O)N[C@@H](CC(C)C)C(=O)N1CCC[C@H]1C(=O)N[C@H](CO)C(=O)N[C@@H](CCC(N)=O)C(=O)N[C@@H](Cc1ccccc1)C(=O)N[C@H](C)C(=O)N1Cc2ccccc2C[C@H]1C(=O)N[C@@H](CO)C(=O)O [C18:3] (HELM PEPTIDE1{[CC/C=C\C/C=C\C/C=C\CCCCCCCC(=O)[*:2]].[O=C(CCOCCOCCOCCOCCOCCOCCOCCOCCN[*:1])[*:2]].K.G.G.[dY].F.L.P.[dS].Q.F.[dA].[Tic].S}$$$$V2.0; N-terminus and C-terminus assumed) was tested, and the Emax (CMKLR1 [1]) was 110% and the “activity after washing in the presence of BSA” value (CMKLR1 [2]; with BSA, FIGS. 8C-8D) was “further reduced”.

In the case of CCCCCCCCCCCCCCCC(=O)NCCOCCOCCOCCOCCOCCOCCOCCOCCC(=O)N[C@@H](CCCCN)C(=O)NCC(=O)NCC(=O)N[C@H](Cc1ccc(O)cc1)C(=O)N[C@@H](Cc1ccccc1)C(=O)N[C@@H](CC(C)C)C(=O)N1CCC[C@H]1C(=O)N[C@H](CO)C(=O)N[C@@H](CCC(N)=O)C(=O)N[C@@H](Cc1ccccc1)C(=O)N[C@H](C)C(=O)N1Cc2ccccc2C[C@H]1C(=O)N[C@@H](CO)C(=O)O [C16] (HELM PEPTIDE1{[CCCCCCCCCCCCCCCC(=O)[*:2]].[O=C(CCOCCOCCOCCOCCOCCOCCOCCOCCN[*:1])[*:2]].K.G.G.[dY].F.L.P.[dS].Q.F.[dA].[Tic].S}$$$$V2.0; N-terminus and C-terminus assumed), the Emax (CMKLR1 [1]) is reported as 165%, the “effect on neuropathic pain” value ([3]; listed as C16-stable Chem9) is reported as “abrogate neuropathic pain” and the “effect on neuropathic pain” value ([3]; listed as palm sC9) is reported as “alleviated neuropathic pain”. The “time after compound administration over which mechanical hypersensitivity is blocked / efficacy kept” value [3] was “more than 24 hours”, the “potency and duration of activity (anchors to the cell membrane)” value (CMKLR1 [2]; previously identified analog) was “high potency and long-term activity” and the “wash resistance (an index of membrane adherence) in the presence of BSA” value (CMKLR1 [2]; with BSA, FIGS. 8A-8B) was “decreased”.

CCCC(=O)NCCOCCOCCOCCOCCOCCOCCOCCOCCC(=O)N[C@@H](CCCCN)C(=O)NCC(=O)NCC(=O)N[C@H](Cc1ccc(O)cc1)C(=O)N[C@@H](Cc1ccccc1)C(=O)N[C@@H](CC(C)C)C(=O)N1CCC[C@H]1C(=O)N[C@H](CO)C(=O)N[C@@H](CCC(N)=O)C(=O)N[C@@H](Cc1ccccc1)C(=O)N[C@H](C)C(=O)N1Cc2ccccc2C[C@H]1C(=O)N[C@@H](CO)C(=O)O [C4] (HELM PEPTIDE1{[CCCC(=O)[*:2]].[O=C(CCOCCOCCOCCOCCOCCOCCOCCOCCN[*:1])[*:2]].K.G.G.[dY].F.L.P.[dS].Q.F.[dA].[Tic].S}$$$$V2.0; N-terminus and C-terminus assumed) showed an Emax (CMKLR1 [1]) of 89.7%.

Work on CCCCCCCC/C=C\CCCCCCCC(=O)NCCOCCOCCOCCOCCOCCOCCOCCOCCC(=O)N[C@@H](CCCCN)C(=O)NCC(=O)NCC(=O)N[C@H](Cc1ccc(O)cc1)C(=O)N[C@@H](Cc1ccccc1)C(=O)N[C@@H](CC(C)C)C(=O)N1CCC[C@H]1C(=O)N[C@H](CO)C(=O)N[C@@H](CCC(N)=O)C(=O)N[C@@H](Cc1ccccc1)C(=O)N[C@H](C)C(=O)N1Cc2ccccc2C[C@H]1C(=O)N[C@@H](CO)C(=O)O [C18:1] (HELM PEPTIDE1{[CCCCCCCC/C=C\CCCCCCCC(=O)[*:2]].[O=C(CCOCCOCCOCCOCCOCCOCCOCCOCCN[*:1])[*:2]].K.G.G.[dY].F.L.P.[dS].Q.F.[dA].[Tic].S}$$$$V2.0; N-terminus and C-terminus assumed) yielded an Emax (CMKLR1 [1]) of 160%.

CCCC/C=C\CCCCCCCC(=O)NCCOCCOCCOCCOCCOCCOCCOCCOCCC(=O)N[C@@H](CCCCN)C(=O)NCC(=O)NCC(=O)N[C@H](Cc1ccc(O)cc1)C(=O)N[C@@H](Cc1ccccc1)C(=O)N[C@@H](CC(C)C)C(=O)N1CCC[C@H]1C(=O)N[C@H](CO)C(=O)N[C@@H](CCC(N)=O)C(=O)N[C@@H](Cc1ccccc1)C(=O)N[C@H](C)C(=O)N1Cc2ccccc2C[C@H]1C(=O)N[C@@H](CO)C(=O)O [C14:1] (HELM PEPTIDE1{[CCCC/C=C\CCCCCCCC(=O)[*:2]].[O=C(CCOCCOCCOCCOCCOCCOCCOCCOCCN[*:1])[*:2]].K.G.G.[dY].F.L.P.[dS].Q.F.[dA].[Tic].S}$$$$V2.0; N-terminus and C-terminus assumed) showed an Emax (CMKLR1 [1]) of 124%.

In the case of “palmitate-PEG8KGG-H2N-Y*-F-L-P-S*-Q-F-A*-Tic-S-COOH ({Palmitoyl-PEG8′}-KGG[dY]FLP[dS]QF[dA][Tic]S-OH) [oTTx-010]”, the “corneal fluorescein staining scores” value (DED mice; NEI scoring system: 0-15, compared with vehicle) is reported as “lower”, the “blink reflex as a sign of ocular irritation” value (DED mice; compared to vehicle treated group) is reported as “significantly lower” and the “T regulatory cells in the draining lymph node” value (DED mice; flow cytometry gated on CD45+ CD3+ and CD4+, compared to vehicle) is reported as “increased”. The “percentage of activated immune cells (MHCII+) in the draining lymph node” value (DED mice; flow cytometry, compared to vehicle controls) was “decreased”, the “clinical symptoms and signs and immune tolerance in DED” value (DED mice; topical) was “decrease clinical symptoms and signs and improve immune tolerance” and the “cell infiltration (flow cytometry of corneas)” value ([4]; day 3 post cautery, topical three times a day 10 μL for 3 days, compared to vehicle) was “decreases”. For the same compound, the “inflammation in the eye” value ([4]; topical) was “decrease inflammation in the eye”.

With CCCCCCCCCC(=O)NCCOCCOCCOCCOCCOCCOCCOCCOCCC(=O)N[C@@H](CCCCN)C(=O)NCC(=O)NCC(=O)N[C@H](Cc1ccc(O)cc1)C(=O)N[C@@H](Cc1ccccc1)C(=O)N[C@@H](CC(C)C)C(=O)N1CCC[C@H]1C(=O)N[C@H](CO)C(=O)N[C@@H](CCC(N)=O)C(=O)N[C@@H](Cc1ccccc1)C(=O)N[C@H](C)C(=O)N1Cc2ccccc2C[C@H]1C(=O)N[C@@H](CO)C(=O)O [C10] (HELM PEPTIDE1{[CCCCCCCCCC(=O)[*:2]].[O=C(CCOCCOCCOCCOCCOCCOCCOCCOCCN[*:1])[*:2]].K.G.G.[dY].F.L.P.[dS].Q.F.[dA].[Tic].S}$$$$V2.0; N-terminus and C-terminus assumed) the Emax (CMKLR1 [1]) was 98.3%.

In the case of CC[C@@H](O)/C=C/C=C\C[C@@H](O)/C=C/C=C/C=C\[C@@H](O)CCCC(=O)O [Resolvin E1, reference compound], the “effect on neuropathic pain” value [3] is reported as “abrogate neuropathic pain” and the “time after compound administration over which mechanical hypersensitivity is blocked / efficacy kept” value [3] is reported as no more than 3 h.

For CCCCCC/C=C\CCCCCCCC(=O)NCCOCCOCCOCCOCCOCCOCCOCCOCCC(=O)N[C@@H](CCCCN)C(=O)NCC(=O)NCC(=O)N[C@H](Cc1ccc(O)cc1)C(=O)N[C@@H](Cc1ccccc1)C(=O)N[C@@H](CC(C)C)C(=O)N1CCC[C@H]1C(=O)N[C@H](CO)C(=O)N[C@@H](CCC(N)=O)C(=O)N[C@@H](Cc1ccccc1)C(=O)N[C@H](C)C(=O)N1Cc2ccccc2C[C@H]1C(=O)N[C@@H](CO)C(=O)O [C16:1] (HELM PEPTIDE1{[CCCCCC/C=C\CCCCCCCC(=O)[*:2]].[O=C(CCOCCOCCOCCOCCOCCOCCOCCOCCN[*:1])[*:2]].K.G.G.[dY].F.L.P.[dS].Q.F.[dA].[Tic].S}$$$$V2.0; N-terminus and C-terminus assumed), the Emax (CMKLR1 [1]) was 154%.
